By LD50 is commonly meant the dose expected to kill half of the subjects tested.

Data set [1] can be described thus: Dermal toxicity of pesticidal formulations in male rats. Particulars: rat, in vivo, topical or ocular, male Wistar rats, 24 hours contact, observed 14 days. The procedure:
Five male Wistar rats weighing approximately 209 to 277 g are selected for each dosage level. The hair is shaved from the ventral surface of the abdomen.
Granular material for evaluation is mixed with an equal weight of water on an aluminum foil backed with a plastic adhesive strapping. This preparation is then applied to the shaven ventral surface of the animal and fastened in place with adhesive strapping. After a contact time of 24 hours, the strapping is removed and the skin is washed with soap and water. The animals are then observed for 14 days for skin irritation or mortality. After this observation period, the animals are sacrificed and weighed.
Dermal LD50 values (mg/kg body weight) are calculated from experimental data for the compositions evaluated. The LD50 values obtained are averaged. […] Compositions A and B of Table III are as defined in Table I.

Data set [2] is described as follows: Dermal toxicity of pesticidal formulations in male albino rabbits. The note with it: rabbit, in vivo, topical or ocular, 24 hours contact, observed 14 days. From the text:
Five male albino rabbits weighing approximately 2.2 to 3.5 kilograms are selected for each dosage level. The hair is shaved from the entire trunk.
The following materials are used in dermal toxicity tests: • (a.) Saran tubing or "vinylite" film VU 1900, 30.5 cm (12") wide, 0.04 millimeter in thickness, and long enough to fit around the rabbit; (b.) Felt cloth bandages measuring approximately 22.9 x 45.7 cm (9" x 18"); (c.) pieces of 3.8 cm (1.5") adhesive tape approximately 35.6 cm (14") long.
Granular material to be evaluated is placed in the center of the plastic film and is moistened with water. The rabbits' underside is then moistened with water, and the animals are placed, belly down, on. the material. The plastic is then brought up and around the animal and secured at each end with strips of adhesive tape. The felt cloth is then placed under the belly and brought up and around the animal and secured to the body with the remaining two strips of adhesive tape. The "cuff" is removed from the test animals 24 hours after dosing, and any remaining material is brushed away. If the test material cannot be removed, the animal is fitted with a fiber collar which prevents the animal from licking the treatment area. […]
The dermal LD50 values (mg/kg/ body weight) are. calculated for experimental data for the compositions evaluated. […]

As for `CCOP(=S)(OCC)SCSC(C)(C)C` [O,O-diethyl S-{[(1,1-dimethylethyl)-thio]methyl}phosphorodithioate], the LD50 at 336 h in data set [1] and in data set [2] was 1 to 2 mg/kg in each case.

The values above are taken from patent publication EP0111112A1, “Granular pesticidal compositions coated with hydrophobic solids with attendant reduced dermal toxicity” (priority 1982, dated 1984).
